Source: patent publication US7897563B2, “Use of oligomers and polymers for drug solubilization, stabilization, and delivery” (Soane Family Trust, priority 2001, dated 2011)

Key:
[1] = octanol/water, nominal temperature of 25 C; from table in CRC Handbook of Chemistry and Physics; cited from earlier work
[2] = Experimental: Log P values measure the partitioning of a molecule between an octanol-rich and a water-rich layer in contact with one another (see CRC Handbook of Chemistry and Physics, 79th edition, Lide, ed., pp. 16-42-16-46, CRC Press, 1998; and references within, all of which are incorporated herein by reference). Log P values are measured at a nominal temperature of 25 C. More preferably, hydrophobic means having a log P value greater than about 0.5, even more preferably a log P value greater than about 1, even more preferably a log P value greater than about 1.5, and most preferably a log P value greater than about 2.

| log P (estimate from a similar small molecule) [2] | Compound | log P [1] |
| --- | --- | --- |
|  | CCCCOC(C)=O [butyl acetate] | 1.82 |
| approximately 0.2 | poly(lactic acid) |  |
